Experimental data reported in patent US8859534B2, “2-carboxamide-7-piperazinyl-benzofuran derivatives” (AstraZeneca AB, priority 2009, dated 2014).

Experiments:
[1] = biological target: 5-HT1A receptor (Homo sapiens (Human), UniProt P08908); experiment: 5-HT1A receptor competition binding assay (SPA, [3H]-8-OH-DPAT); conditions: membranes of CHO cells expressing 5-HT1A receptors; radioligand [3H]-8-OH-DPAT 0.15-0.2 nM
Source text: (§1) Assays that were used to measure affinity of the compounds of the present invention for 5-HT1A and 5-HT1B receptors are described in J. Recept Signal Transduct. Res. 22:483-495 (2002) and Naunyn-Schmiedeberg's Arch Pharmacol. 356:328-334 (1997) and incorporated by reference herein. These assays were be used with some modifications:
(§2) For the binding assay stably transfected chinese hamster ovary (CHO) cell lines expressing 5-HT1A receptors or 5-HT1B receptors were harvested by centrifugation at 300×g for 10 min and resuspended in 10 mM Tris-HCl, 5 mM EDTA at pH 7.4. The cells were pooled, recentrifuged and resuspended before homogenisation using a Dounce homogeniser (“type B”). Cell membranes were centrifuged at 48 000×g for 10 min and then resuspended in harvesting buffer using an Ultra-Turrax T8 (IKA Labortechnik, Germany), aliquots were stored frozen in −70° C.
Frozen membrane preparations were thawed, homogenized with an Ultra-Turrax and mixed with SPA beads (YSI coated WGA, GE Healthcare/Amersham, Buckinghamshire, UK) in assay buffer containing 50 mM Tris-Base, 4 mM MgCl2, 4 mM CaCl2 (only 5-HT1B), 1 mM EDTA, and adjusted to pH 7.4 with HCl. […] The binding assays were performed in 384-well plates in a final volume of 90 μL/well with the following additions: 9 μL binding buffer; 1 μL compound/DMSO/nonspecific; 20 μL radioligand; and 60 μL beads/membrane mixture. Non-specific binding was defined by using 10 μM WAY100635 for 5-HT1A and 10 μM Methiothepin for 5-HT1B. The assay plates were incubated for 4 hours where after the plates are counted in a Wallac 1450 Microbeta Trilux counter (PerkinElmer LifeScience, US) or similar. Data from the experiments were analyzed using a four parameter logistic equation as follows: Y=Bottom+(Top-Bottom)/1+10^(LogEC50-X)nH.

[2] = biological target: 5-HT1B receptor (Homo sapiens (Human), UniProt P28222); experiment: 5-HT1B receptor competition binding assay (SPA, [3H]-GR125743); conditions: membranes of CHO cells expressing 5-HT1B receptors; radioligand [3H]-GR125743 0.15-0.2 nM
Source text: as §1, §2
Frozen membrane preparations were thawed, homogenized with an Ultra-Turrax and mixed with SPA beads (YSI coated WGA, GE Healthcare/Amersham, Buckinghamshire, UK) in assay buffer containing 50 mM Tris-Base, 4 mM MgCl2, 4 mM CaCl2 (only 5-HT1B), 1 mM EDTA, and adjusted to pH 7.4 with HCl. The beads/membrane solution, final concentration 100 pM receptors for 5-HT1A, 300 pM receptors for 5-HT1B and 0.5 mg SPA beads/well, was pre-incubated in room temperature with stirring for 30-60 min. […] Five (log interval, 10 μM to 1 nM, final concentration) or ten serial dilutions (½-log interval, 10 μM to 0.32 nM, final concentration) of compounds were prepared in DMSO from 10 mM stock solutions. The binding assays were performed in 384-well plates in a final volume of 90 μL/well with the following additions: 9 μL binding buffer; 1 μL compound/DMSO/nonspecific; 20 μL radioligand; and 60 μL beads/membrane mixture. Non-specific binding was defined by using 10 μM WAY100635 for 5-HT1A and 10 μM Methiothepin for 5-HT1B. The assay plates were incubated for 4 hours where after the plates are counted in a Wallac 1450 Microbeta Trilux counter (PerkinElmer LifeScience, US) or similar. Data from the experiments were analyzed using a four parameter logistic equation as follows: Y=Bottom+(Top-Bottom)/1+10^(LogEC50-X)nH.
• Jerning E., Rosqvist S., Mohell N. (2002) NAD-299 antagonises 5-HT-stimulated and Spiperone-inhibited [^35S]GTPγS binding in cloned 5-HT1A receptors. J Recept Signal Transduct Res 22:483-495. • Doménech T., Beleta J., Palacios J. M. (1997) Characterization of human serotonin 1D and 1B receptors using [^3H]-GR-125743, a novel radiolabelled serotonin 5HT1D/1B receptor antagonist. Naunyn-Schmiedeberg's Arch Pharmacol 356:328-334.

5-HT1B receptor, sequence (P28222 whole entry): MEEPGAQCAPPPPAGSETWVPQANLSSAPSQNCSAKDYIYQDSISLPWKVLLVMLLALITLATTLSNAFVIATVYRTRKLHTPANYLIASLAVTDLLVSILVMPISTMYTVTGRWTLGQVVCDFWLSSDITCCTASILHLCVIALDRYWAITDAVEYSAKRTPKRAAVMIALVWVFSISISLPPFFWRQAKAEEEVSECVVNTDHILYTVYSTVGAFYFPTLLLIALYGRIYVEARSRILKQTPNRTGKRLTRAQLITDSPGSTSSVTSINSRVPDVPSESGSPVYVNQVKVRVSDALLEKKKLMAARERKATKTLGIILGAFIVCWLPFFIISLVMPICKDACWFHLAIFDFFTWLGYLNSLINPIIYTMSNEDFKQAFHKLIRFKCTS
5-HT1A receptor, sequence (P08908 whole entry): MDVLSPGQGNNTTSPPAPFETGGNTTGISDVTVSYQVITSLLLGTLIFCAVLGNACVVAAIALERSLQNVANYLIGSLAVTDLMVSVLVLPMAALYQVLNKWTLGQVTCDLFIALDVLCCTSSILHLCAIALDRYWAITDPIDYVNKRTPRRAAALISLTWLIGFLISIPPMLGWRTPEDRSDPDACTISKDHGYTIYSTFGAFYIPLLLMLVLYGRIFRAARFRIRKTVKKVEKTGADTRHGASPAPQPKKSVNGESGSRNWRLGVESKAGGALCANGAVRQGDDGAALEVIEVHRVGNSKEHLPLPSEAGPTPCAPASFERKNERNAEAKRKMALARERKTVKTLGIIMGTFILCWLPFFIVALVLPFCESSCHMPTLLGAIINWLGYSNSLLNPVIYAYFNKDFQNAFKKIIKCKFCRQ

## CN(C)C(=O)c1cc2c(Br)ccc(N3CCN(CCc4ccccn4)CC3)c2o1 [Example 53, 4-Bromo-N,N-dimethyl-7-(4-(2-(pyridin-2-yl)ethyl)piperazin-1-yl)benzofuran-2-carboxamide]
[1]
  Ki: 0.35 nM
[2]
  Ki: 11 nM
